Experimental data taken from patent publication US20260069599A1, “INHIBITORS OF BROMODOMAIN-CONTAINING PROTEIN 4 AND PHOSPHOINOSITIDE 3-KINASE” (Board of Regents of the University of Nebraska, priority 2022, published 2026).

Key:
BRD4-BD2 [1] = target: T1, BRD4-BD2 (Homo sapiens, UniProt O60885); assay: Protein Thermal Shift (PTS) assay on BRD4-BD2; type: binding; parameters: polyhistidine (N, cleaved yes); made in house; host or cells: E. coli (T7 express); conditions: 100 μM ligand, 20 μM BD protein; thermal destabilization
Protocol: The genes encoding human BRD2-BD1, BRD2-BD2, and BRD4-BD2 were codon-optimized for expression in E. coli. […] The sequence-confirmed plasmids were used to transform T7 express E coli. Large-scale cell cultures were grown in LB media containing […] carbenicillin and incubated with shaking at 37° C. until the OD600 nm reached 0.6. Then cultures were cooled to 16° C., and 1 mM isopropyl β-D-1-thiogalactopyranoside was added to induce the protein expression. After 20 hours of incubation, cells were harvested. The resulting cell pellet was resuspended in a lysis buffer containing 50 mM Tris pH 7.5, 200 mM NaCl, 0.5 mM imidazole, and 0.3 mM tris(2-carboxyethyl) phosphine (TECP). After the addition of DNase I and lysozyme, the cell suspension was incubated on ice for 30 minutes and lysed by sonication. The lysate was clarified by centrifugation at 12,000 rpm for 45 minutes. The resulting supernatant was applied to a 5 mL metal affinity cobalt column pre-equilibrated with lysis buffer. Then, 25 column volumes of lysis buffer were passed through the column to eliminate unbound E coli proteins. Recombinant protein was eluted isocratically with the elution buffer containing 50 mM Tris pH 7.5, 200 mM NaCl, 150 mM imidazole, and 0.3 mM TECP. The rhinovirus 3C protease was added to the eluted recombinant protein to cleave the N-terminal Histidine tag and the sample dialyzed against a buffer containing 50 mM Tris pH 7.5, 100 mM NaCl and 0.3 mM TECP. After 12 hours, the protein solution was passed through a 5 ml cobalt column, which was pre-equilibrated with dialysis buffer, and the recombinant protein lacking the His-tag was collected from the flowthrough.
Each reaction used 20 μM concentration of recombinant BD protein in a 50 mM Tris pH 7.5 buffer containing 100 mM NaCl, 0.3 mM tris(2-carboxyethyl) phosphine HCl, and 1% dimethyl sulfoxide. Protein Thermal Shift Dye (ThermoFisher) was also added at 1× concentration. Under these conditions, 3 protein melting curves with each respective BD and 100 μM final concentration of ligand were performed from 25 to 95° C. with a ramp rate of 0.5° C./minute. Evaluation of the derivative of the fluorescence signal employed the Applied Bioscience Protein Thermal Shift Software version 1.3 to determine the average melting temperature (Tm) for each sample and the standard deviation(s) of those Tm values.

BRD4-BD1 = target: T2, BRD4-BD1 (Homo sapiens, UniProt O60885); conditions: relative to SF2523; cited from earlier work
T2 construct: tested against BRD4-BD1 and BRD4-BD2 using a peptide-displacement assay

BRD4-BD2 [2] = target: T1, BRD4-BD2; parameters: tested against BRD4-BD1 and BRD4-BD2 using a peptide-displacement assay; conditions: relative to SF2523; cited from earlier work

Structure (SMILES)	BRD4-BD2 Tm decrease (BRD4-BD2 [1]) [°C]	better binding affinity than SF2523 for BRD4-BD1 (BRD4-BD1) [fold]	better binding affinity than SF2523 for BRD4-BD2 (BRD4-BD2 [2]) [fold]
O=c1c(N2CCOCC2)nc(Br)c2n1CCc1ccccc1-2 [MDP3, 1-bromo-3-morpholino-6,7-dihydro-4H-pyrazino [2,1-a]isoquinolin-4-one]	1.3	–	–
O=c1cc(N2CCOCC2)oc2c(Br)cccc12 [MDP4, 8-bromo-2-morpholino-4H-chromen-4-one]	0.6	–	–
O=C(NCc1cccnc1)c1cc(-c2csc3c(=O)cc(N4CCOCC4)oc23)cc2c1OCCO2 [SRX3212]	–	65	48
